Consider one molecule from publication PMC7999199, “Novel Cationic Meso-Arylporphyrins and Their Antiviral Activity against HSV-1” (Pharmaceuticals, 2021).

Molecules are shown by their SMILES.

One data set has as its system Vero cells. Briefly: Vero cell viability, MTT test, 72 h. The note with it: MTT; for Viability % ±s.d.: +F127 (Pluronic F-127), Vero, 3 days. It is filed as cell-based, African green monkey. How it is done: Before testing antiviral activity, the effect of porphyrins dissolved in PBS and Pluronic F-127 on the viability of Vero cells was evaluated. Cells were incubated for 72 h using different concentrations of porphyrins (0.39–100 μM). Viability was assessed using the MTT test (Figure S13, Table S1, Supplementary Information). The viability of Vero cells depends on the porphyrins’ structure and formulation.
Cell viability was assessed by MTT reduction assay. Briefly, confluent monolayer Vero cells in 96-well plates (15000 cells/well) were incubated for 72 h with different concentrations of the compounds ranging from 0.39 µM to 100 µM in DMEM-1% FCS at 36.8 °C in 5% CO2 atmosphere. Next, cells were incubated for 1 h with 1.0 mg/mL of 3-(4,5-dimethylthiazol-2-y1)-2,5-diphenyltetrazolium bromide (MTT, PanEco, Moscow, Russia) at 36.8 °C, and then the solution was removed, and precipitated formazan was diluted in DMSO (PanEco, Moscow, Russia). The solution was read on a spectrophotometer at 540 nm. For each concentration, the average cell viability was calculated from the data of three experiments with three replicates each and was expressed as a percentage compared to the untreated cells (100%).
Table s1. Vero cell viability after exposure to 3a, 3b, TMEPyP compounds dissolved in PBS and Pluronic F-127. Different concen-
trations of compounds were applied to the cell monolayer and after incubation for 3 days, the number of living cells was calculated
in the MTT test. Each point represents the mean ± standard deviation of three experiments with […] each. n.d. –not done.
Compound Concentration, µM/L Viability % ±s.d.
Background: Tetrazolium assays rely on reduction of a dye to a coloured formazan, in cell work by metabolically active cells.

Data set [1] is described as follows: Micelle size of Pluronic F-127 formulations by dynamic light scattering. It is filed as physicochemical. The settings on record: Pluronic F-127 micelles, concentration 3·10^−6 M. How it is done:
The size of obtained micelles for the compounds 3a,b was determined by the dynamic light scattering (DLS) method. The micelle size for compounds 3a,b was 17.53 nm and 14.69 nm, respectively, at concentrations of 3·10^−6 M (Figure 4a,b). It has previously been reported that a similar micelle size increased the efficiency and circulation of the encapsulated drug in the blood due to the small scale, which avoided the capture of nanoparticles by the reticular endothelial system.
NMR (^1H and ^13C) spectra of the test solutions in CDCl3 or (CD3OD) were recorded on a Bruker MSL-300 pulse Fourier transform spectrometer (Bruker, Billerica, MA, USA) at frequencies of 300.3 and 75.49 MHz, respectively, with internal deuterium stabilization. Tetramethylsilane was used as an external standard. IR spectra (4000–500 cm^–1) were recorded on Infralyum FT 02 Fourier spectrometer (Lumex Instruments Research and Production Company, Moscow, Russia) with a resolution of 1 cm^−1. Samples were prepared as KBr tablets. Dynamic light scattering was measured using Malvern Zetasizer Nano ZS (Malvern, United Kingdom). […] Mass spectra were recorded using an 1100 LCMSD liquid chromatograph (Agilent Technologies, Santa Clara, CA, USA) equipped with a mass spectrometric chemical ionization detector at atmospheric pressure (HIAD, APCI, ESI) and with a UV spectrophotometric detector (DAD). […]

`O=C(CCCCC[n+]1ccccc1)Oc1ccc(-c2c3nc(c(-c4ccc(OC(=O)CCCCC[n+]5ccccc5)cc4)c4ccc([nH]4)c(-c4ccc(OC(=O)CCCCC[n+]5ccccc5)cc4)c4nc(c(-c5ccc(OC(=O)CCCCC[n+]6ccccc6)cc5)c5ccc2[nH]5)C=C4)C=C3)cc1` [3b, 5,10,15,20-tetrakis(4-(6-pyridyl-n-hexanoyl)oxyphenyl)porphyrin tetrabromide]: the “Viability % ±s.d.” value with Vero cells (0.39 µM/L) is 97.6±6.9%; in the data set with Vero cells (0.78 µM/L) it was 81.3±10.8%; with Vero cells (1.56 µM/L), 82.7±19.5%; with Vero cells (3.13 µM/L), 79.6±9.6%; with Vero cells (6.25 µM/L), 63.4±8.1%; in the data set on Vero cells (12.50 µM/L) it was 67.7±11.5%. Besides, the “Viability % ±s.d.” value in the data set with Vero cells (25 µM/L) was determined as 58.4±4.4%; in the data set with Vero cells (50 µM/L), 41.3±2.7%; in the data set on Vero cells (100 µM/L), 25.0±1.9%. This molecule showed a CC50 in the data set with Vero cells (Pluronic F-127 (F127) micellar formulation, Vero cells, 72 h) of 27 µM. Moreover, the “micelle size (DLS)” value in data set [1] is on record as 14.69 nm.

As usually defined, the CC50 is the concentration that lowers cell viability or growth by half.
